Patent US20060166934A1, “Composition comprising phytosphingosine derivatives for apoptosis induction” (Tae-Yoon Kim, priority 2002, published 2006)

How the values were obtained:
[1] = system: human umbilical vein endothelial cells (HUVEC); test: MTT assay, cytotoxicity in HUVEC; type: cell-based; details: for Cell viability: HUVEC, con = 100, in %
Experimental: (§1) Firstly, the cytotoxicity is measured by the MTT assay. Phytosphingosine (PS), phytosphingosine-HCl (PS-HCl), C6-phytosphingosine (C6-PS), CLA-phytosphingosine (CLA-PS), tetraacetyl phytosphingosine (TAPS), and N-acetyl phytosphingosine (NAPS) are dissolved into DMSO to have the final concentration of 1-100 μM.
(§2) In order to study the effects of the compositions of the present invention on the cytotoxicity in the human keratinocyte cell line HaCaT cells, the cell viability is analyzed by the MTT (3-[4,5-dimethylthiazol-2-yl]-2,5-diphenyltetrazolium bromide) assay. HaCaT cells are supplied by Professor N. Fuseng of German Cancer Research in Germany. HaCaT cells are seeded in a density of 1×10^6 cells in a […] and cultured in DMEM (Dulbecco's Modified Eagle Medium) containing 10% fetal bovine serum (FBS, GIBCO), 100 units/ml penicillin, and 100 μg/ml streptomycin for 48 hours. They are treated with trypsin and 1-2×10^4 cells per well are seeded again in a 96-well plate by using a serum-free culture medium, about 3 hours after which they are cultured by treatment with phytosphingosine derivatives. After they are cultured for 24 hours, the MTT reagent is added at a concentration of 2 mg/ml, cultured for 4 hours, suspended in DMSO after removing the culture medium completely in order to measure O.D. at 540 nm. C2-ceramide is used for comparison.
The MTT assay is used for the above purpose. Primary human umbilical vein endothelial cells are cultured from the human umbilical vein. The method of cell culture and the MTT assay are the same as those in the above. C2-ceramide is used for comparison.

Th1 cells activation = test: Mixed leukocyte reaction (MLR), Th1 cells activation by TNBSO3, MTT assay; type: cell-based, mice; details: MLR with TNBSO3-conjugated stimulator cells, FIG. 4
Experimental: Whether the composition of the present invention has a suppressive effect on the Th1 cells activation which isolate […], IL-12, etc. by reacting with TNBSO3 […] was examined.
The mononuclear cells obtained from spleen of mice as described the above 4 were used for responder cells, and TNBSO3-conjugated cells were used for stimulator cells. The stimulator cells were obtained as follows:
The mononuclear cells were adjusted to be 2×10^7 cells/ml in PBS and the same volume of 20 mM TNBSO3 was added and incubated at 37° C. for 10 min in the dark state. After incubation, the cells wrer washed three times with PBS.
(§3) Each 2×10^5 responder cells and stimulator cells were mixed with each other and cultured for 5 days on the 96-well plate. And RPMI with 10% of serum was used as a medium.
(§4) The above cells were cultured for 24 hours in the presence of 1, 10, 50 and 100 μM of NAPS, TAPS, and PS to examine the proliferation of the cells.
(§5) C2-ceramide was used as control.

HaCaT cells [2] = test: TUNEL assay, induction of apoptosis; type: cell-based, human; details: for cell death (TUNEL): 10 μM and 30 μM, 24 hours, FIG. 6; for time after treating at which apoptosis is induced: 30 μM, FIG. 7
Experimental: Induction of apoptosis of HaCaT cells by the compositions of the present invention is observed in the TUNEL-TdT-mediated dUTP nick end labeling-assay by using in situ cell death detection kit, POD (Enzo, 1684817, Boeringer Mannhein).
In the TC chamber (Lab-TEK chamber Slide w/cover Permanox Slide sterile 1 well, 177410), 1×10^6 HaCaT cells are seeded and cultured on the DMEM medium for longer than 18 hours and treated with phytosphingosine derivatives. The cells are fixed 24 hours after treating with drugs, and the endogenous peroxidase is blocked with a blocking solution (3% H2O2 in MeOH), and permeation of cells is increased by using a permeabilization solution (0.1% Triton X-100 in 0.1% sodium citrate). Then apoptotic cells are labeled by using the mixture of tunnel reaction and are colored by using the DAB substrate (DAKO, K3465). Colored cells are observed by using a microscope.

HaCaT cells [3] = test: MTT assay, combined treatment with UVB irradiation; type: cell-based, human; design: Cell viability: unit not given here; details: for cytotoxicity: 10 μM only; for Cell viability: HaCaT
Experimental: In order to study the synergistic effect in the cytotoxicity by the cotreatment with administration of the compositions of the present invention and with UVB irradiation, the cell viability is analyzed by MTT assay method in HaCaT cells. On a 100-mm dish, 1×10^6 HaCaT cells are seeded and cultured in DMEM containing 10% fetal bovine serum, 100 units/ml penicillin, and 100 μg/ml streptomycin for 48 hours. They are treated with trypsin, and 1-2×10^4 cells per well are seeded on a 96-well plate again by using a serum-free medium, which is removed after about 3 hours. HaCaT cells are washed with PBS three times, and 3.5 ml of PBS per plate is added. It is then irradiated with 200 J/m^2 of UVB. After irradiation, the medium is replaced with a DMEM medium. Then it is treated with the phytosphingosine derivatives of the present invention, and cultured for 24 hours. After 2 mg/ml of the MTT reagent is added, it is cultured for 4 hours. The medium is removed completely, the cells are suspended in DMSO, and O.D. is measured at 540 nm.

[4] = system: Th1 cells activation against allogenic cells (PBMC); test: Reactions among allogenic cells, Th1 cells activation, MTT assay; type: cell-based, human; details: FIG. 5
From the text: Whether the composition of the present invention has a suppressive effect on the Th1 cells activation by allogenic cells in immune reation was examined.
PBMC obtained from different volunteers as described in the above 5 were used for responder cells and stimulator cells respectively. PBMC for stimulator cells were used after X-ray irradiation (3000 rad) to inhibit the proliferation of stimulator cells.
as §3, §4, §5

caspase-3 = test: Immunoblot analysis of active caspase-3; type: cell-based, human; details: HaCaT, FIG. 11; for time to maximum active caspase-3: after treatment; for maximum increase of active caspase-3 (expression of induction): immunoblot
Experimental: In the confirmation of apoptosis-related proteins, the immunoblot analysis is performed in order to look into the effects of the compositions of the present invention on the expression of caspase-3, p53, and Chk1 proteins related to the induction of apoptosis.
HaCaT cells are cultured on a 100-mm dish and collected at the indicative time. The proteins are extracted by adding 500 μl of RIPA lysis buffer (1% Nonidet P-40, 1% sodium deoxycholate, 0.1% SDS, […], 0.01 M sodium phosphate, pH 7.2, 2 mM EDTA, 50 mM sodium fluoride and 0.2 mM sodium vanadate), and the concentration is measured by using the Bradford method. 1
Extracted proteins is electrophoresed on 12% polyacrylamide gel, and they are transferred to the nitrocellulose membrane. The membrane blocked with 5% non-fat milk is reacted with the primary antibodies (caspase-3, p53, and Chk1), washed, and reacted with the secondary HRP-conjugated antibody. The intensity of proteins is analyzed by using the ECL kit.

[5] = system: human keratinocyte cell line HaCaT cells; test: MTT assay, cytotoxicity in human keratinocyte cell line; type: cell-based; details: for Cell viability: 24 hours, con = 100, in %
Experimental: as §1, §2

For `CCCCCCCCCCCCCC[C@@H](O)[C@@H](O)[C@H](CO)NC(C)=O` [NAPS, N-acetyl phytosphingosine], the cytotoxicity ([1]; human, 24 h, 30 μM) was 86-91%, the “concentration showing a suppressive effect on Th1 cells activation” value (Th1 cells activation) was 50 µM and the “cell death (TUNEL)” value (HaCaT cells [2]) was “most significant effect of cell death”. For the same compound, the “time after treating at which apoptosis is induced” value (HaCaT cells [2]) was 4 h, the cytotoxicity (HaCaT cells [3]; no UVB) was 33% and the “concentration showing a suppressive effect on Th1 cells activation against allogenic cells” value [4] was 50 μM. The “time after treatment at which cleavage to active caspase-3 is increased significantly” value (caspase-3) was 30 min, the “time for which increased active caspase-3 is maintained” value (caspase-3) was 12 h and the “time to maximum active caspase-3” value (caspase-3) was no more than 3 h. The “maximum increase of active caspase-3 (expression of induction)” value (caspase-3) was 6 folds and the cytotoxicity ([5]; human, 24 h, 30 μM) was 83%.
tetraacetyl phytosphingosine [TAPS] gave a Cell viability ([1]; 3.5 μM) of 47 ± 8.4, a Cell viability ([1]; 7 μM) of 22 ± 1.9 and a Cell viability ([1]; 15 μM) of 15 ± 0.7. For the same compound, the Cell viability ([1]; 30 μM) was 9 ± 0.5, the “concentration showing a suppressive effect on Th1 cells activation” value (Th1 cells activation) was 10 µM and the “cell death (TUNEL)” value (HaCaT cells [2]) was “most significant effect of cell death”. The “time after treating at which apoptosis is induced” value (HaCaT cells [2]) was 4 h, the Cell viability (HaCaT cells [3]; 1 μM + UVB 200 J/m^2, 24 hours) was 27 ± 7.1 and the Cell viability (HaCaT cells [3]; 1 μM, no UVB, 24 hours) was 111 ± 7.0. The Cell viability (HaCaT cells [3]; 3 μM + UVB 200 J/m^2, 24 hours) was 27 ± 3.9, the Cell viability (HaCaT cells [3]; 3 μM, no UVB, 24 hours) was 97 ± 10.0 and the Cell viability (HaCaT cells [3]; 5 μM + UVB 200 J/m^2, 24 hours) was 16 ± 3.2. For the same compound, the Cell viability (HaCaT cells [3]; 5 μM, no UVB, 24 hours) was 83 ± 8.0, the Cell viability (HaCaT cells [3]; 10 μM + UVB 200 J/m^2, 24 hours) was 2 ± 0.1 and the cytotoxicity (HaCaT cells [3]; no UVB) was 57%. For the same compound, the Cell viability (HaCaT cells [3]; 10 μM, no UVB, 24 hours) was 43 ± 4.0, the “suppressive effect on Th1 cells activation against allogenic cells” value ([4]; 50 μM) was “suppress completely” and the “concentration showing a suppressive effect on Th1 cells activation against allogenic cells” value [4] was 50 μM. The “time for which increased active caspase-3 is maintained” value (caspase-3) was 24 h, the “time to maximum active caspase-3” value (caspase-3) was no more than 3 h and the “maximum increase of active caspase-3 (expression of induction)” value (caspase-3) was 5 folds. It also gave a Cell viability ([5]; 1 μM, HaCaT) of 94 ± 0.1, a Cell viability ([5]; 3 μM, HaCaT) of 93 ± 2.9 and a Cell viability ([5]; 10 μM, HaCaT) of 76 ± 1.4. The Cell viability ([5]; 30 μM, HaCaT) was 17 ± 1.1 and the cytotoxicity ([5]; 30 μM, HaCaT) was 83%.
